The values that follow come from EP0059009A1, “Pharmaceutical compositions containing quinoline derivatives as active component, a method for the preparation of such compositions, new quinoline derivatives and a method for the preparation thereof” (ACF Chemiefarma N.V., priority 1981, dated 1982).

SMILES strings stand for the structures.

Assay [1] concerns guinea pigs. Description: Guinea pigs electrostimulation test (arrhythmias induced by electrostimulation of the right ventricle). In kind it is in vivo. Particulars: for Percent increase in voltage (%) required for arrhythmia: given intraduodenally 30 min before stimulation, anaesthetised guinea pigs, treated vs control animals. The procedure:
Arrhythmias are induced in guinea pigs by electro- stimulation of the right ventricle of the heart. The animals are anaesthesized with urethane (1.2 g/kg i.p.) and artificially respirated before a needle electrode is inserted in the right venticle of the heart. Substances are given intraduodinally 30 min. before the stimulation at a standard dose of 32 mg/kg.
The voltage needed for induction of extra systoles in control animals (n = 6) is compared with that required for induction of arrhythmias in treated animals (n = 6).
-This method is based on the work of L. Szekeres and G.J. Papp, Naunyn-Schmiedebergs Arch. Exp. Path. Pharmak., 245, 70 (1963).

The test system of assay [2] is malaria. The note with it: reported by Ainly and King, Proc. Roy. Soc. (London) B 125, 49 (1938); cited from earlier work.

As for `C=CC1CNCCC1CCC(O)c1ccnc2ccc(OC)cc12` (stereo not drawn) [I, Quinicinol-l.bifumarate], the “Percent increase in voltage (%) required for arrhythmia” value in assay [1] (Dose 16 mg/kg) amounted to 25%; in assay [1] (Dose 32 mg/kg), 114%. On to `C=CC1CNCCC1CCC(O)c1ccnc2ccccc12` (stereo not drawn) [III], for which, in assay [1] (Dose 32 mg/kg), the “Percent increase in voltage (%) required for arrhythmia” value is given as 35%. On to `CCC1CNCCC1CCC(O)c1ccnc2ccc(OC)cc12` (stereo not drawn) [II], for which the “Percent increase in voltage (%) required for arrhythmia” value in assay [1] (Dose 16 mg/kg) turned out to be 33.9%; in assay [1] (Dose 32 mg/kg), 176%. For the compound `CCC1CNCCC1CC(O)Cc1ccnc2ccc(OC)cc12` (stereo not drawn) [Reference com-pound of formula 6a, reference compound], in assay [1] (Dose 16 mg/kg), the “Percent increase in voltage (%) required for arrhythmia” value was determined as 0%. Besides, in assay [1] (result in words, dose not given), the “anti-arrhythmic screen using the electro-stimulation test” value is “inactive”.

Consider `CCC1CNCCC1CCC(O)c1ccnc2ccc(OCCC(C)C)cc12` (stereo not drawn) [VII], for which, in assay [1] (Dose 23.5 mg/kg), the “Percent increase in voltage (%) required for arrhythmia” value is 85%. On to `CCC1CNCCC1CCC(O)c1ccnc2ccc(OC)cc12` (stereo not drawn) [dihydroquiniconol, dihydroquinicinol], for which the anti-malaria activity entry in assay [2] was “did not show anti-malaria activity”.
